Laboratory results published in patent US9056814B2, “Polymorphic form of a calcimimetic compound” (LEO PHARMA A/S, priority 2010, dated 2015).

What was measured:
Type in all cases: physicochemical
[1] = Competitive slurrying experiments (XRPD follow-up); conditions: for Polymorphic stability/conversion in competitive slurrying: MeOH suspension 30 mg/mL, 14 days, 5° C., room temperature and reflux (65° C.)
Procedure: The suspensions at 5° C. and r.t. were prepared in 4 mL vials with caps and equipped with a small magnetic stirrer bar. The suspensions were stirred at approximately 500 rpm. for two weeks. The suspensions prepared at high temperature were prepared in 10 mL Erlenmeyer flask equipped with a magnetic stirrer bar and reflux condenser.
Samples of the suspensions were taken at time=0, 1 day, 7 days and 14 days and investigated by XRPD.

[2] = Stress stability test for solid state transformation; conditions: 60° C., 60° C./75% relative humidity and 80° C./75% relative humidity; 4 weeks
Procedure: Polymorph Form C, Form X and mixtures of the two polymorphic forms C+X have all been tested at different conditions of temperature and relative humidity for signs of solid state transformation. The stress stability test was carried out at three sets of conditions: 60° C., 60° C./75% relative humidity and 80° C./75% relative humidity, and samples were analyzed after 1, 2 and 4 weeks, ie. after 7, 14 and 28 days.
One 1.8 ml amber screw top vial (27267-U, Supelco) containing between 50 and 100 mg {4-[(1R,3S)-3-((R)-1-Naphthalen-1-yl-ethylamino)-cyclopentyl]-phenoxy}-acetic acid was tested per individual set of conditions. The vials to be tested at 60° C. were closed with a PTFE lined black polypropylene solid cap (27416, Supelco) and placed in a thermostated heating cabinet. The vials to be tested at 60° C./75% relative humidity and 80° C./75% relative humidity were placed uncapped in a desiccator containing a saturated NaCl solution. The desiccator was subsequently placed in a thermostated heating cabinet.
The samples were analyzed at 1, 2 and 4 weeks for • 1. Visual appearance • 2. HPLC assay and impurities • 3. Polymorph characterization

[3] = Aqueous solubility as a function of pH; conditions: room temperature, conclusion from Table 6
Procedure: The aqueous solubility of Form C and Form X was determined as a function of pH at 25° C. in 0.1N HCl (pH 1.0) and in Sorensen phosphate buffers at pH 2.0, 4.0, 6.0 and 8.0. For each pH value two individual determinations were made. Form C or Form X was weighed out (11 mg for pH 1, 4 mg for pH 2-8) in scintillation vials and 4 ml 0.1N HCl or buffer was added. The vials were shaken for 24 hours at 25° C. After 24 hours it was checked that the vial still contained undissolved material. The suspensions were filtered through a 0.45 μm filter, which was first saturated with app. 0.5 ml filtrate. The resulting filtrates were diluted and analyzed by HPLC vs. a standard curve.

[4] = Thermo gravimetric analysis (TGA); conditions: Graph 4a (Form C sample), ±2° C.
Procedure: Thermo gravimetric analysis (TGA): TGA experiments were conducted using a Perkin Elmer Pyris 1 TGA instrument. About 10-20 mg of sample was loaded into a ceramic pan for the measurements. The sample temperature was ramped from 25 to 350° C. at 10° C./min. Nitrogen was used as the purge gas at a flow rate of 40 mL/min.

[5] = Transition temperature of the enantiotropic polymorphs from melting enthalpy and melting points; conditions: estimated from melting enthalpy and melting points of Form C and Form X
Procedure: From careful measurements of melting enthalpy and melting points of both forms, the transition temperature has been estimated to lie between 120 to 145° C.
Differential scanning calorimetry (DSC): DSC experiments were carried out using a Perkin Elmer DSC8500 system. About 0.5-3 mg of sample was used for the measurements. An aluminium pan was used for the analysis and was sealed by applying pressure by hand and pushing each part of the pan together. The temperature was ramped from −60 to 270° C. at 20° C./min. Nitrogen was used as the purge gas with a flow rate of 20 mL/min.

Compound | Polymorphic stability/conversion in competitive slurrying [1] | 4 week stress stability test, solid state transformation [2] | Polymorphic conversion in competitive slurrying ([1]; competitive slurrying at 110° C.) | Solubility of Form X relative to Form C [3] | Polymorphic stability/conversion in competitive slurrying ([1]; listed as mixtures of Form X+C) | Transition temperature at which the two polymorphs are equally stable ([1]; lower bound from competitive slurrying of Form C and Form X) | Temperature below which stable towards degradation (TGA trail) [4] | Transition temperature (estimated) [5] [°C]
C[C@@H](NC1CCC(c2ccc(OCC(=O)O)cc2)C1)c1cccc2ccccc12 (stereo in doubt) [Form C, {4-[(1R,3S)-3-((R)-1-Naphthalen-1-yl-ethylamino)-cyclopentyl]-phenoxy}-acetic acid] | stable at all three temperatures | without any solid state transformation | – | – | – | – | – | –
C[C@@H](NC1CCC(c2ccc(OCC(=O)O)cc2)C1)c1cccc2ccccc12 (stereo in doubt) [Form X, {4-[(1R,3S)-3-((R)-1-Naphthalen-1-yl-ethylamino)-cyclopentyl]-phenoxy}-acetic acid] | convert to pure Form C at all three temperatures | without any solid state transformation | transformation of Form X to Form C | higher compared to Form C | – | – | – | –
C[C@@H](NC1CCC(c2ccc(OCC(=O)O)cc2)C1)c1cccc2ccccc12 (stereo in doubt) [{4-[(1R,3S)-3-((R)-1-Naphthalen-1-yl-ethylamino)-cyclopentyl]-phenoxy}-acetic acid] | – | without any solid state transformation | – | – | convert to pure Form C at all three temperatures | above 110 °C | below 255 °C | 120 to 145
